Test results as given in patent US12150972B1, “Egg white protein anti-inflammatory peptide and application thereof” (Hangzhou BIBAU Biotechnology Co., Ltd., priority 2023, dated 2024).
Peptide text beside a SMILES is read from it.

How the values were obtained:
[1] = test system: IL-1β secretion in RAW264.7 cells induced by LPS; test: IL-1β secretion in LPS-induced RAW264.7 cells (ELISA); type: cell-based, mouse; conditions: RAW264.7 induced by LPS; sample 500 μg/mL
Method: (§1) The three groups were cultured in the incubator for 24 hours, and the supernatants were collected. According to the instructions of the ELISA kit, the absorbance value at 450 nm was measured and the secretion amounts of inflammatory factors TNF-α, IL-6 and IL-1β were calculated. The inhibition ratios of the three inflammatory factors were calculated by formula (3).
(§2) In the formula, C refers to the inhibition ratio (%) of inflammatory factors, Co is the secretion amount of inflammatory factors in the blank group, C1 is the secretion amount of inflammatory factors in the LPS group, and C2 is the secretion amount of inflammatory factors in the sample group.

[2] = test system: NO production in RAW264.7 cells induced by LPS; test: NO production amount in LPS-induced RAW264.7 cells (Griess method); type: cell-based, mouse; conditions: for NO production amount: RAW264.7 induced by LPS 1 μg/mL
Method: The NO production amount in the cell was measured by Griess method. The grouping, treatment and culture methods were the same as 1.2. After 24 hours of culture, the supernatant was collected and the NO production amount was measured using a NO detection kit. 50 μL of cell supernatant, 50 μL of Griess I reagent, and 50 μL of Griess II reagent were mixed, and stood for 5 minutes, and then the absorbance value at 540 nm was measured. According to the instructions of the NO kit, the NO production amount in each sample was calculated, and the inhibition ratio of NO production amount is calculated by formula (2).
In the formula, B refers to the NO inhibition ratio (%), B0 is the NO production amount of the blank group, B1 is the NO production amount of the LPS group, and B2 is the NO production amount of the sample group.

[3] = test system: IL-6 secretion in RAW264.7 cells induced by LPS; test: IL-6 secretion in LPS-induced RAW264.7 cells (ELISA); type: cell-based, mouse; conditions: RAW264.7 induced by LPS; sample 500 μg/mL
Method: as §1, §2

[4] = test system: TNF-α secretion in RAW264.7 cells induced by LPS; test: TNF-α secretion in LPS-induced RAW264.7 cells (ELISA); type: cell-based, mouse; conditions: RAW264.7 induced by LPS; sample 500 μg/mL
Method: as §1, §2

[5] = in vitro; conditions: mouse, RAW264.7 macrophage cells induced by LPS, cell viability
Method: The cell viability of RAW264.7 cells was determined by MTT method. RAW264.7 cells in the logarithmic growth phase were seeded in a 96-well plate at 100 μL/well with a density of 4×10^4/well. The outermost layer of the 96-well plate was sealed by PBS solution, and the 96-well plate was transferred to an incubator for culturing for 12 to 24 hours. The incubator temperature was 37° C. and the CO2 concentration was 5%. After the cells adhered to the wall, the waste supernatant was extracted from the 96-well plate. A blank group (added with 100 μL of culture medium), an LPS group (added with 100 μL of LPS with a final mass concentration of 1 μg/mL), and a sample group (added with 100 μL of peptides with different or the same mass concentration and added with LPS with a final mass concentration of 1 μg/mL after 2 hours of reaction) were set, and each group was performed in triplicate. After culturing for 24 hours, 20 μL of MTT solution with a concentration of 5 mg/mL was added into each well. After continuing to culture in the incubator for 4 hours, 100 μL of dimethyl sulfoxide (DMSO) was added and shaken gently for 10 min. The absorbance value at 570 nm was measured with a microplate reader, and the cell viability (%) was calculated according to the formula (1).
In the formula (1), V refers to the cell viability (%), A1 is the absorbance value of the blank group at 570 nm, and A2 is the absorbance value of the sample group at 570 nm.

SMILES: N[C@@H](Cc1ccccc1)C(=O)NCC(=O)N1CCC[C@H]1C(=O)N[C@@H](Cc1c[nH]cn1)C(=O)O [FGPH, Phe-Gly-Pro-His] (H-FGPH-OH)
- inhibition ratio of IL-1β secretion [1]: 52.43±2.29%
- NO production amount ([2]; sample 125 μg/mL): 18.07 ± 0.31 µM
- NO production amount ([2]; sample 250 μg/mL): 16.23 ± 0.31 µM
- NO production amount ([2]; sample 500 μg/mL): 13.82 ± 0.31 µM
- inhibition ratio of NO production amount ([2]; RAW264.7 induced by LPS, sample 500 μg/mL): 64.41±0.47%
- inhibition ratio of IL-6 secretion [3]: 41.72±1.83%
- inhibition ratio of TNF-α secretion [4]: 28.07±2.10%
- viability at 24 h, 125 µg/mL [5]: > 109%
- viability at 24 h, 250 µg/mL [5]: > 109%
- viability at 24 h, 500 µg/mL [5]: > 109%
- viability at 24 h, 1000 µg/mL [5]: < 97%
